The target in experiment [1] is T1, Replicative DNA helicase DnaB (Mycobacterium tuberculosis, UniProt P9WMR3).
T1 sequence (P9WMR3 whole entry): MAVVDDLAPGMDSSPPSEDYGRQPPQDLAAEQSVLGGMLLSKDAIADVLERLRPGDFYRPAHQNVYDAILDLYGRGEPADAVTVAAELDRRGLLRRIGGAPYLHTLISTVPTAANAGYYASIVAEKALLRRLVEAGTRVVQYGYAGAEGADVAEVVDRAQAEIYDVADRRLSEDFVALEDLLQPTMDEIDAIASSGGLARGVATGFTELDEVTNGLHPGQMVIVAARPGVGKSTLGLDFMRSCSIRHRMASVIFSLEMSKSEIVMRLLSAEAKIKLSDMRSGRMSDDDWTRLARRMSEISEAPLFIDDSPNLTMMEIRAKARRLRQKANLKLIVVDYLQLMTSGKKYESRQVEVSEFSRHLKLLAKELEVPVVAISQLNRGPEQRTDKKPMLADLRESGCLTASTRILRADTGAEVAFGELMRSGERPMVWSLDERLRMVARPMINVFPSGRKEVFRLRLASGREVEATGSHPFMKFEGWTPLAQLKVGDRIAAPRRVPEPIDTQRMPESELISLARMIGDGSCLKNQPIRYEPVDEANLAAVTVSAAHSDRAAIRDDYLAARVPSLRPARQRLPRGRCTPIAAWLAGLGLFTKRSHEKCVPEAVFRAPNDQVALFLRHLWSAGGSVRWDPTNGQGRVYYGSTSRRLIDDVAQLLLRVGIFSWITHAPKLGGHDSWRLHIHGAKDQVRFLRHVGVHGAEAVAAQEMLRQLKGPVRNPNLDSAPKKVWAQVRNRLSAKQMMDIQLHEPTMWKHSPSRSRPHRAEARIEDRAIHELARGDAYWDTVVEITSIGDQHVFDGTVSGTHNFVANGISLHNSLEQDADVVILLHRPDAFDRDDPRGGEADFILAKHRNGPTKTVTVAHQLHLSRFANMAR
Description: DnaB intein splicing inhibitors, dose response, biochemical, cell-free fluorescence (AID 449749). Format: functional.

A further experiment addresses T2, Protein RecA (Mycobacterium tuberculosis, UniProt P9WHJ3).
T2 sequence (P9WHJ3 whole entry): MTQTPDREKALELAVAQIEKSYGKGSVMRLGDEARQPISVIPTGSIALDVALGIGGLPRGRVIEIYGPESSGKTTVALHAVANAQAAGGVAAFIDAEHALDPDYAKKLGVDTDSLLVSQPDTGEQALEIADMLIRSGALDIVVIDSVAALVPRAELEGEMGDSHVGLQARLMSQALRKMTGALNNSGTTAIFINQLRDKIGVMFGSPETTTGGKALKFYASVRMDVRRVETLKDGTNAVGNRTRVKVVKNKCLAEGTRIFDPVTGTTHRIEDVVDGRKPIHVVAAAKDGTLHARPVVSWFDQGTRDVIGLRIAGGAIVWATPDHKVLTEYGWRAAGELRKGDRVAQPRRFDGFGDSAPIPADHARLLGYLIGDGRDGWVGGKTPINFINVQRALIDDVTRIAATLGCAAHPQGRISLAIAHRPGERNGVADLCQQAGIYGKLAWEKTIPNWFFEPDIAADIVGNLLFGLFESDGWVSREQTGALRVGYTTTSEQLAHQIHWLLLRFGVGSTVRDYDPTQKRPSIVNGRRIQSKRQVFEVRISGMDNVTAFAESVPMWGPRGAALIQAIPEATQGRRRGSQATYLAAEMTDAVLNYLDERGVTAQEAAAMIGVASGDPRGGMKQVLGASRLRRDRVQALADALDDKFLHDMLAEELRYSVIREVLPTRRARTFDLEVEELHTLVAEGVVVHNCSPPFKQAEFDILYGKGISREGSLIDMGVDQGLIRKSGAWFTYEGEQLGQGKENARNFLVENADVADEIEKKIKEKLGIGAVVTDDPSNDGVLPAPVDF
Kind of experiment: Fluorescence Cell-Free Homogeneous Dose Retest to Identify Inhibitors of RecA-Intein Splicing Activity. [Related pubchem assays (depositor defined):AID2097, AID2223, AID489010, AID492950]. Format: functional.

Another experiment concerns the target Genome polyprotein (dengue virus type 2, UniProt P29990). Kind of experiment: flavivirus cap methylation enzyme inhibition – biochemical, confirmation dose response, primary screen (AID 588689). Format: functional.
The next experiment relates to HeLa. Kind of experiment: ATP-based viability loss in HeLa cells – cell-based, CellTiter-Glo luminescence, cherry-pick samples, cytotoxicity control for MITF activator project, dose response (AID 540259). Format: functional. To be noted: Homo sapiens.
For another experiment, the target named is Cytochrome P450 2C9 (Homo sapiens, UniProt P11712).
For experiment [2], the target named is T3, RNA-binding protein pos-1 (Caenorhabditis elegans, UniProt G5EF15).
T3 sequence (G5EF15 whole entry): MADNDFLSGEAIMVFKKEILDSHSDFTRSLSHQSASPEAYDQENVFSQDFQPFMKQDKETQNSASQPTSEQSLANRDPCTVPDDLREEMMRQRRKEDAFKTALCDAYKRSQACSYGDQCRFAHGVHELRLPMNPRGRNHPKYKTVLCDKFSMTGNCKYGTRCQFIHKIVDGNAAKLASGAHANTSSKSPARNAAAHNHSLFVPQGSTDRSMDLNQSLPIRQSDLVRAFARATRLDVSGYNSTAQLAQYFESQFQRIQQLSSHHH
Description: disruptors of C. elegans POS-1 RNA interaction – biochemical, fluorescence polarization, dose response (AID 1964).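 Also: purified POS-1 fused to maltose binding protein made in E. coli; potency of compounds blocking POS-1 binding to fluorescent RNA.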 For orientation: Polarisation of emitted light reports the rotation of a fluorescent probe.

Experiment [3] deals with T4, Zinc finger protein mex-5 (Caenorhabditis elegans, UniProt Q9XUB2).
T4 sequence (Q9XUB2 whole entry): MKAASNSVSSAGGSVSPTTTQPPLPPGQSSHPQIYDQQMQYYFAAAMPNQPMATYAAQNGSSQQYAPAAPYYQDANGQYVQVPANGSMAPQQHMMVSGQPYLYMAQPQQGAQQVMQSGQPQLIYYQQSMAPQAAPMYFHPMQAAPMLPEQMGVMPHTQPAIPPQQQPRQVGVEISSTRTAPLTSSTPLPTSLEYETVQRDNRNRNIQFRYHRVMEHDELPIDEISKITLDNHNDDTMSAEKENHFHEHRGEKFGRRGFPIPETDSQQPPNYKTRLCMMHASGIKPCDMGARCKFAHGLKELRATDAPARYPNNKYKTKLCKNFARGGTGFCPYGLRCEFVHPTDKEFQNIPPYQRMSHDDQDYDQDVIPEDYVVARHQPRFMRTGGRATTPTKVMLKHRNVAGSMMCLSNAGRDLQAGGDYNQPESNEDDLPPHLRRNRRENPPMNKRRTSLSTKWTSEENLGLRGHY
Kind of experiment: potency of MEX-5 RNA-binding blockers – biochemical, C. elegans, fluorescence polarization, dose response (AID 1960).

Experiment [4] has as its target T5, Endoribonuclease toxin MazF (Escherichia coli K-12, UniProt P0AE70).
T5 sequence (P0AE70 whole entry): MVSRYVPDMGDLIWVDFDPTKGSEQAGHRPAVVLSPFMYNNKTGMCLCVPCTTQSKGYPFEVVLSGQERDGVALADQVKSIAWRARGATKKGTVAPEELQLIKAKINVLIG
Kind of experiment: activation of MazEF endoribonuclease cleavage – biochemical, fluorescence, single-stranded RNA substrate, uHTS hits, dose response (AID 588481). Format: functional.

Experiment [5] concerns the target T5, Endoribonuclease toxin MazF. Description: substrate-only fluorescence increase artefacts – biochemical, single-stranded RNase substrate, counter-screen for MazEF activator project, dose response (AID 588502). Format: functional. For orientation: A counterscreen serves to expose hits that act by an unwanted route or on another target.
Experiment [6] is described as follows: NIH-3T3 fibroblast cytotoxicity, dose response, cytotoxicity control, cell-based, fluorescence, Alamar Blue, secondary assay (AID 2327).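 Also: NIH-3T3 mouse fibroblasts cultured with fluconazole at 8 µg/mL.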 Format: functional. A general note: Alamar Blue is a resazurin reagent that responds to reducing activity.
Experiment [7] is described as follows: fluconazole-exposed Candida albicans growth modulators – fluorescence, retest, confirmation (AID 2467). Format: functional, cell-based.
Experiment [8] concerns the target T6, Serine/threonine-protein phosphatase (Candida dubliniensis (strain CD36 / CBS 7987 / NCPF 3949 / NRRLY-17841) (Yeast), UniProt B9W6M3).
T6 sequence (B9W6M3 whole entry): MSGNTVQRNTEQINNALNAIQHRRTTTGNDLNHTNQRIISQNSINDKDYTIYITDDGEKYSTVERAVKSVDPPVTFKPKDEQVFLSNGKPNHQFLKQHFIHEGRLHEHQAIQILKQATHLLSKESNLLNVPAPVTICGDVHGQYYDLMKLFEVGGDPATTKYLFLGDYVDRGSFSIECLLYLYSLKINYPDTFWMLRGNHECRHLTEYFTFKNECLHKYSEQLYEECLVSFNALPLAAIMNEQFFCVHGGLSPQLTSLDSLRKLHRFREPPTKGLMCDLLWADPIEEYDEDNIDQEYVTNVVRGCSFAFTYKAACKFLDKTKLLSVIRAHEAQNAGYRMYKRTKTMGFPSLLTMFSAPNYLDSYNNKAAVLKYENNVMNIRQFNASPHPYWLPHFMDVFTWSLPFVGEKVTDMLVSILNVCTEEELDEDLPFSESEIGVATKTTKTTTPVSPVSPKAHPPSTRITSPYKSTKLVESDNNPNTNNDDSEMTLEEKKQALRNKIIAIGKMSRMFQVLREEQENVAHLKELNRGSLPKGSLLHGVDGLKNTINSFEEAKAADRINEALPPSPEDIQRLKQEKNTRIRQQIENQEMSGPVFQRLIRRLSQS
Kind of experiment: blockers of CaCl2-induced CDRE-lacZ signaling – S. cerevisiae, luminescence, secondary, dose response (AID 2388).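 Also: yeast reporter cells carrying a calcineurin-responsive lacZ construct stimulated with calcium chloride; luminescent beta-galactosidase reporter signal in whole cells rather than isolated phosphatase activity; potency for inhibition where a drop in reporter signal means calcineurin blockade.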 Format: functional, cell-based.

Experiment [9] can be described thus: Luminescence Cell-Based Dose Retest to Confirm Inhibitors of Cancer Stem Cells. [Related pubchem assays (depositor defined):AID2717, AID2721]. To be noted: Homo sapiens. Format: functional, Homo sapiens.
Experiment [10] has as its target ATP-dependent molecular chaperone HSP82 (Candida albicans (strain WO-1) (Yeast), UniProt C4YTQ8). Description: steroid-induced GRE reporter decrease in yeast – S. cerevisiae, luminescence, Hsp90 inhibitor project, dose response (AID 2400).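 Also: beta-galactosidase luminescence from glucocorticoid response element reporter as proxy for Hsp90 function; inhibitor potency where signal loss means Hsp90 inhibition.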 Format: functional, cell-based.
A further experiment relates to H9c2. Kind of experiment: cells. Format: functional, cell-based. Conditions: Rattus norvegicus, H9c2, Myocardium.

Structures are written as SMILES. Calls of active or inactive are those of the source.

ATP-dependent molecular chaperone HSP82, sequence (C4YTQ8 whole entry): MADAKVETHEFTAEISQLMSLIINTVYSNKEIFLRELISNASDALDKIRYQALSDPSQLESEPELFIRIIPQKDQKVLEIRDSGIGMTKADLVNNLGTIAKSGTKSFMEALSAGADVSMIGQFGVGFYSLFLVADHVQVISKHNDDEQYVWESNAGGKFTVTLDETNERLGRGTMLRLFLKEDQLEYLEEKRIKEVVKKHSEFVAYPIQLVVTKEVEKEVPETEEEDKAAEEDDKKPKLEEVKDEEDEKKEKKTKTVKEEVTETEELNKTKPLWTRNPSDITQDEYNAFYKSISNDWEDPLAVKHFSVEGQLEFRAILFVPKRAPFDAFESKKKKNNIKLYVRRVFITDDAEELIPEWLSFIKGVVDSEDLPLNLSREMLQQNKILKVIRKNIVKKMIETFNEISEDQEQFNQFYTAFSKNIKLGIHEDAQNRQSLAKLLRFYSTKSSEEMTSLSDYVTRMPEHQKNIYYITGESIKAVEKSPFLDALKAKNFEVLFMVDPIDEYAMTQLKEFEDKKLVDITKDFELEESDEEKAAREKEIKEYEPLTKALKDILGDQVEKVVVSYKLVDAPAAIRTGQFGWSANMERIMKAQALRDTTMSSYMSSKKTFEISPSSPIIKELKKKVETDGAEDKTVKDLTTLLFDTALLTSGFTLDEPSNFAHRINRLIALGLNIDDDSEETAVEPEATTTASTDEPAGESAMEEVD
Genome polyprotein, sequence (P29990 2492-3391 limits assumed): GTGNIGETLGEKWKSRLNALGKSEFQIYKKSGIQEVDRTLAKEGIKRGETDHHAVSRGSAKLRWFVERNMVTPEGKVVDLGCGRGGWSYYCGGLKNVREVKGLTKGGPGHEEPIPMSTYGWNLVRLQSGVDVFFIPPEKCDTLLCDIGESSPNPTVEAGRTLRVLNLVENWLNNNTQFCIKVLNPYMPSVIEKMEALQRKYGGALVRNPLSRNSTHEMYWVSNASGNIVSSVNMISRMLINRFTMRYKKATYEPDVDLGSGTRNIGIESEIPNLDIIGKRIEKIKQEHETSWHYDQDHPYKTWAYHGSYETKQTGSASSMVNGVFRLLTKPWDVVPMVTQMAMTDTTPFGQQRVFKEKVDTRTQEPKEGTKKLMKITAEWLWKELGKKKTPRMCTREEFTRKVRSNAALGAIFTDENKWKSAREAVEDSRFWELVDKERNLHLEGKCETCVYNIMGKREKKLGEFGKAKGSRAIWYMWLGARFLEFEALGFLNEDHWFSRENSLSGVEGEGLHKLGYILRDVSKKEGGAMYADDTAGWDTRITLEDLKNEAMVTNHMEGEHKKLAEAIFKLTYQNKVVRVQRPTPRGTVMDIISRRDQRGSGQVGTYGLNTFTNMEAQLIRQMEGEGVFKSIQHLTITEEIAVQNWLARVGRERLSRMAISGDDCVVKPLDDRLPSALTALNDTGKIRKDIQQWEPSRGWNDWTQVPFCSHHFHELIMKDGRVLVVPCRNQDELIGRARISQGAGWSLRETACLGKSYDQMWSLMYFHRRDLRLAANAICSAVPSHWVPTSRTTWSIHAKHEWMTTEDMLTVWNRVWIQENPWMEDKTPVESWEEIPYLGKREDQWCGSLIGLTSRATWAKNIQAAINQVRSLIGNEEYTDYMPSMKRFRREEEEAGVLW
Cytochrome P450 2C9, sequence (P11712 whole entry): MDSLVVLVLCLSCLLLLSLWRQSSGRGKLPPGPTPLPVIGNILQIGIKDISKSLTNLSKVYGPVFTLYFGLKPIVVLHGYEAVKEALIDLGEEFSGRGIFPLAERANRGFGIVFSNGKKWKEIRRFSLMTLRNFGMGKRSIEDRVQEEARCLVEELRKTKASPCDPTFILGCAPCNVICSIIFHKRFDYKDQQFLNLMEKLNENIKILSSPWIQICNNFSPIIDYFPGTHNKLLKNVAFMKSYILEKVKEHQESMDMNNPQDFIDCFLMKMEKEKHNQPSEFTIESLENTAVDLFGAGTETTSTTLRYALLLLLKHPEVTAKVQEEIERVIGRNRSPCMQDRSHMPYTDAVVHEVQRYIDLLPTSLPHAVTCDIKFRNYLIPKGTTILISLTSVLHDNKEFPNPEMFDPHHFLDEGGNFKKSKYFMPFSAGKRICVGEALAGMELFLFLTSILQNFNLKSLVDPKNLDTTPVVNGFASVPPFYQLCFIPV

As for `Cc1nn(-c2ccccc2)c2c1C(c1cccs1)C(C#N)=C(N)O2` (centres undefined), in [1], the AC50 – broadly, the concentration at which the activity in the assay is half-maximal – is 7 µM (active). Further, the EC50 (in general, the midpoint of the concentration-response curve) on Protein RecA was 1.83 µM (active). In addition, the IC50 (commonly the concentration that inhibits the measured activity by half) on Genome polyprotein was > 100 µM (active).

Take `Clc1ccc(-c2nnc(CCc3ccccc3)o2)c(Cl)c1`: the figures for the half-maximal activity concentration (AC50) with HeLa and at Cytochrome P450 2C9 were 78.9 µM (active) and 39.8 µM (inconclusive), respectively.

In the case of `CCCCOC(=O)Cn1c2ccc(OC)cc2c2nc3ccccc3nc21`, the EC50 in [2] is > 300 µM (not active); in experiment [3], > 300 µM (not active); in experiment [4], > 99 µM (inactive); in [5] it was 24.7 µM (inactive).

Regarding `CCCC(=O)NC(c1ccco1)c1cc([N+](=O)[O-])c2cccnc2c1O` (centres undefined), the concentration for a half-maximal effect (EC50) is 20.3 µM (active) in [6], 0.826 µM (active) in experiment [7], > 180 µM (inactive) in experiment [8] and > 150 µM (inactive) in [10]. Further, the AC50 in experiment [9] was 2.02 µM (active).

For `COc1ccc2nc(SCC(C)=O)c(C#N)cc2c1`, the values for the EC50 in experiment [4] and in experiment [5] were > 99 µM (inactive) and 16.5 µM (active), respectively.

Regarding `Cc1ccc(C(c2c(O)n3c(nc2=O)SCC3)c2c(O)n3c(nc2=O)SCC3)cc1`, the IC50 on Genome polyprotein was 84.2 µM (active).

Take `O=C1/C(=C/c2cccnc2)CCc2c1[nH]c1ccccc21`: the EC50 is > 160 µM (inactive) in experiment [6], 1.95 µM (active) in experiment [7], > 180 µM (inactive) in [8] and > 150 µM (inactive) in experiment [10]. In addition, the AC50 in the experiment with HeLa was 18.7 µM (active).

In the case of `CC1=NN(c2ccccc2)C(=O)/C1=C/c1cc(C)n(C2CC2)c1C`, the EC50 in [4] and in [5] was > 99 µM (inactive) each time.

Regarding `CC(C)(C)c1ccc(OCCCC(=O)NNC(=O)c2ccccc2O)cc1`, the EC50 is 51 µM (inconclusive) in experiment [6], > 38 µM (not active) in experiment [7], > 180 µM (inactive) in experiment [8] and > 160 µM (inactive) in experiment [10]. Also, the IC50 in the experiment on H9c2 was > 79 µM (inactive).

Source of the values: ChEMBL document CHEMBL1201862, “PubChem BioAssay data set” (2004).
